In brackets after ≈: the same amount, converted by molar mass.
How the values were obtained:
MR CoNS = test: In vitro MIC, 2010 surveillance isolates; format: cell-based, Coagulase-Negative Staphylococcus
K. oxytoca = test: In vitro MIC, 2010 surveillance isolates; format: cell-based; settings: for % R (resistance): CLSI breakpoints
Enterobacter spp = test: In vitro MIC, 2010 surveillance isolates; format: cell-based; settings: for % R (resistance): CLSI breakpoints
E. cloacae CeftazS = test: In vitro MIC, 2010 surveillance isolates; format: cell-based; settings: for % R (resistance): CLSI breakpoints
E. coli ESBL+ = test: In vitro MIC, 2010 surveillance isolates; format: cell-based, Escherichia coli; settings: for % R (resistance): CLSI breakpoints
E. faecium VS = test: In vitro MIC, 2010 surveillance isolates; format: cell-based; settings: for % R (resistance): CLSI breakpoints
E. faecalis VS = test: In vitro MIC, 2010 surveillance isolates; format: cell-based; settings: for % R (resistance): CLSI breakpoints
Acinetobacter spp = test: In vitro MIC, 2010 surveillance isolates; format: cell-based; settings: for range of MICs (N <10, shown instead of MIC90): N=9; for % R (resistance): CLSI breakpoints
E. cloacae CeftazR = test: In vitro MIC, 2010 surveillance isolates; format: cell-based; settings: for % R (resistance): CLSI breakpoints
E. faecalis VNS = test: In vitro MIC, 2010 surveillance isolates; format: cell-based; settings: for % R (resistance): CLSI breakpoints
MSSA = test: In vitro MIC, 2010 surveillance isolates; format: cell-based
E. coli ESBL− = test: In vitro MIC, 2010 surveillance isolates; format: cell-based, Escherichia coli; settings: for % R (resistance): CLSI breakpoints
K. pneumoniae ESBL− = test: In vitro MIC, 2010 surveillance isolates; format: cell-based, Klebsiella pneumoniae; settings: for % R (resistance): CLSI breakpoints
A. baumanii = test: In vitro MIC, 2010 surveillance isolates; format: cell-based
MRSA = test: In vitro MIC, 2010 surveillance isolates; format: cell-based
E. faecium VNS = test: In vitro MIC, 2010 surveillance isolates; format: cell-based; settings: for % R (resistance): CLSI breakpoints
human plasma protein = settings: literature; cited from earlier work
MS CoNS = test: In vitro MIC, 2010 surveillance isolates; format: cell-based, Coagulase-Negative Staphylococcus
K. pneumoniae ESBL+ = test: In vitro MIC, 2010 surveillance isolates; format: cell-based, Klebsiella pneumoniae; settings: for % R (resistance): CLSI breakpoints

C[C@H]1c2cccc(O)c2C(=O)C2=C(O)[C@]3(O)C(=O)C(C(N)=O)=C(O)[C@@H](N(C)C)[C@@H]3[C@@H](O)[C@@H]21 [Doxycycline]
% R (resistance) (MR CoNS; Asia/Pac, Eucast breakpoints): 20.8% | MIC90 (MR CoNS; Asia/Pac, N=77): 8 µg/mL (≈ 18 µM) | % R (resistance) (MR CoNS; Europe, Eucast breakpoints): 8.8% | MIC90 (MR CoNS; Europe, N=510): 2 µg/mL (≈ 4.5 µM) | % R (resistance) (MR CoNS; L. Amer, CLSI breakpoints): 0.3% | MIC90 (MR CoNS; L. Amer, N=301): 1 µg/mL (≈ 2.25 µM) | % R (resistance) (MR CoNS; N America, CLSI breakpoints): 1.3% | MIC90 (MR CoNS; N America, N=461): 2 µg/mL (≈ 4.5 µM) | MIC90 (K. oxytoca; Asia/Pac, N=17): 2 µg/mL (≈ 4.5 µM) | MIC90 (K. oxytoca; Europe, N=158): 2 µg/mL (≈ 4.5 µM) | % R (resistance) (K. oxytoca; L. Amer): 12% | MIC90 (K. oxytoca; L. Amer, N=25): > 8 µg/mL | % R (resistance) (K. oxytoca; N America): 2.3% | MIC90 (K. oxytoca; N America, N=177): 4 µg/mL (≈ 9 µM) | MIC90 (Enterobacter spp; Asia/Pac, N=52): > 8 µg/mL | MIC90 (Enterobacter spp; Europe, N=82): 8 µg/mL (≈ 18 µM) | % R (resistance) (Enterobacter spp; L. Amer): 0% | MIC90 (Enterobacter spp; L. Amer, N=42): 4 µg/mL (≈ 9 µM) | % R (resistance) (Enterobacter spp; N America): 7.9% | MIC90 (Enterobacter spp; N America, N=101): 4 µg/mL (≈ 9 µM) | MIC90 (E. cloacae CeftazS; Asia/Pac, N=100): > 8 µg/mL | MIC90 (E. cloacae CeftazS; Europe, N=183): 4 µg/mL (≈ 9 µM) | % R (resistance) (E. cloacae CeftazS; L. Amer): 12.3% | MIC90 (E. cloacae CeftazS; L. Amer, N=57): > 8 µg/mL | % R (resistance) (E. cloacae CeftazS; N America): 6.2% | MIC90 (E. cloacae CeftazS; N America, N=210): 4 µg/mL (≈ 9 µM) | MIC90 (E. coli ESBL+; Asia/Pac, N=219): > 8 µg/mL | resistance rates for ESBL-producing clinical isolates (E. coli ESBL+; E. coli): 46% | MIC90 (E. coli ESBL+; Europe, N=274): > 8 µg/mL | % R (resistance) (E. coli ESBL+; L. Amer): 53% | MIC90 (E. coli ESBL+; L. Amer, N=168): > 8 µg/mL | % R (resistance) (E. coli ESBL+; N America): 42.5% | MIC90 (E. coli ESBL+; N America, N=134): > 8 µg/mL | MIC90 (E. faecium VS; Asia/Pac, N=106): > 8 µg/mL | MIC90 (E. faecium VS; Europe, N=303): > 8 µg/mL | % R (resistance) (E. faecium VS; L. Amer): 21.6% | MIC90 (E. faecium VS; L. Amer, N=51): > 8 µg/mL | % R (resistance) (E. faecium VS; N America): 31.3% | MIC90 (E. faecium VS; N America, N=115): > 8 µg/mL | MIC90 (E. faecalis VS; Asia/Pac, N=214): > 8 µg/mL | MIC90 (E. faecalis VS; Europe, N=669): > 8 µg/mL | % R (resistance) (E. faecalis VS; L. Amer): 7.6% | MIC90 (E. faecalis VS; L. Amer, N=290): 8 µg/mL (≈ 18 µM) | % R (resistance) (E. faecalis VS; N America): 7.1% | MIC90 (E. faecalis VS; N America, N=863): 8 µg/mL (≈ 18 µM) | range of MICs (N <10, shown instead of MIC90) (Acinetobacter spp; Asia/Pac): ≤0.06-2 | MIC90 (Acinetobacter spp; Europe, N=43): > 8 µg/mL | % R (resistance) (Acinetobacter spp; L. Amer): 0% | range of MICs (N <10, shown instead of MIC90) (Acinetobacter spp; L. Amer): ≤0.06-2 | % R (resistance) (Acinetobacter spp; N America): 11.9% | MIC90 (Acinetobacter spp; N America, N=42): > 8 µg/mL | MIC90 (E. cloacae CeftazR; Asia/Pac, N=63): 8 µg/mL (≈ 18 µM) | MIC90 (E. cloacae CeftazR; Europe, N=72): > 8 µg/mL | % R (resistance) (E. cloacae CeftazR; L. Amer): 14.3% | MIC90 (E. cloacae CeftazR; L. Amer, N=42): > 8 µg/mL | % R (resistance) (E. cloacae CeftazR; N America): 28.6% | MIC90 (E. cloacae CeftazR; N America, N=77): > 8 µg/mL | range of MICs (N <10, shown instead of MIC90) (E. faecalis VNS; Asia/Pac, N=1): 8 | range of MICs (N <10, shown instead of MIC90) (E. faecalis VNS; Europe, N=8): 0.5-8 | % R (resistance) (E. faecalis VNS; L. Amer): 0% | range of MICs (N <10, shown instead of MIC90) (E. faecalis VNS; L. Amer, N=7): ≤0.06-4 | % R (resistance) (E. faecalis VNS; N America): 5.3% | MIC90 (E. faecalis VNS; N America, N=38): 8 µg/mL (≈ 18 µM) | % R (resistance) (MSSA; Asia/Pac, Eucast breakpoints): 1.7% | MIC90 (MSSA; Asia/Pac, N=641): 1 µg/mL (≈ 2.25 µM) | % R (resistance) (MSSA; Europe, Eucast breakpoints): 1.4% | MIC90 (MSSA; Europe, N=2109): 0.12 µg/mL (≈ 0.27 µM) | % R (resistance) (MSSA; L. Amer, CLSI breakpoints): 0% | MIC90 (MSSA; L. Amer, N=590): 0.5 µg/mL (≈ 1.13 µM) | % R (resistance) (MSSA; N America, CLSI breakpoints): ≤ 0.1% | MIC90 (MSSA; N America, N=2373): 0.12 µg/mL (≈ 0.27 µM) | MIC90 (E. coli ESBL−; Asia/Pac, N=282): > 8 µg/mL | MIC90 (E. coli ESBL−; Europe, N=1533): > 8 µg/mL | % R (resistance) (E. coli ESBL−; L. Amer): 31.4% | MIC90 (E. coli ESBL−; L. Amer, N=389): > 8 µg/mL | % R (resistance) (E. coli ESBL−; N America): 16% | MIC90 (E. coli ESBL−; N America, N=1172): > 8 µg/mL | MIC90 (K. pneumoniae ESBL−; Asia/Pac, N=189): > 8 µg/mL | MIC90 (K. pneumoniae ESBL−; Europe, N=361): > 8 µg/mL | % R (resistance) (K. pneumoniae ESBL−; L. Amer): 17.5% | MIC90 (K. pneumoniae ESBL−; L. Amer, N=160): > 8 µg/mL | % R (resistance) (K. pneumoniae ESBL−; N America): 13.7% | MIC90 (K. pneumoniae ESBL−; N America, N=671): > 8 µg/mL | MIC90 (A. baumanii; Asia/Pac, N=275): > 8 µg/mL | MIC90 (A. baumanii; Europe, N=145): > 8 µg/mL | % R (resistance) (A. baumanii; L. Amer, CLSI breakpoints): 15.3% | MIC90 (A. baumanii; L. Amer, N=275): > 8 µg/mL | MIC90 (A. baumanii; N America, N=154): > 8 µg/mL | % R (resistance) (MRSA; Asia/Pac, Eucast breakpoints): 48.6% | MIC90 (MRSA; Asia/Pac, N=428): 8 µg/mL (≈ 18 µM) | % R (resistance) (MRSA; Europe, Eucast breakpoints): 10.8% | MIC90 (MRSA; Europe, N=750): 4 µg/mL (≈ 9 µM) | % R (resistance) (MRSA; L. Amer, CLSI breakpoints): 0% | MIC90 (MRSA; L. Amer, N=506): 0.25 µg/mL (≈ 0.563 µM) | % R (resistance) (MRSA; N America, CLSI breakpoints): 0.1% | MIC90 (MRSA; N America, N=2508): 0.5 µg/mL (≈ 1.13 µM) | MIC90 (E. faecium VNS; Asia/Pac, N=24): > 8 µg/mL | MIC90 (E. faecium VNS; Europe, N=71): 8 µg/mL (≈ 18 µM) | % R (resistance) (E. faecium VNS; L. Amer): 7.3% | MIC90 (E. faecium VNS; L. Amer, N=41): 8 µg/mL (≈ 18 µM) | % R (resistance) (E. faecium VNS; N America): 33.1% | MIC90 (E. faecium VNS; N America, N=478): > 8 µg/mL | human plasma protein binding, Mean (human plasma protein): 82-93% | % R (resistance) (MS CoNS; Asia/Pac, Eucast breakpoints): 5.6% | MIC90 (MS CoNS; Asia/Pac, N=18): 2 µg/mL (≈ 4.5 µM) | % R (resistance) (MS CoNS; Europe, Eucast breakpoints): 3.2% | MIC90 (MS CoNS; Europe, N=185): 1 µg/mL (≈ 2.25 µM) | % R (resistance) (MS CoNS; L. Amer, CLSI breakpoints): 0% | MIC90 (MS CoNS; L. Amer, N=67): 2 µg/mL (≈ 4.5 µM) | % R (resistance) (MS CoNS; N America, CLSI breakpoints): 0.5% | MIC90 (MS CoNS; N America, N=191): 1 µg/mL (≈ 2.25 µM) | MIC90 (K. pneumoniae ESBL+; Asia/Pac, N=124): > 8 µg/mL | MIC90 (K. pneumoniae ESBL+; Europe, N=151): > 8 µg/mL | % R (resistance) (K. pneumoniae ESBL+; L. Amer): 44% | MIC90 (K. pneumoniae ESBL+; L. Amer, N=209): > 8 µg/mL | % R (resistance) (K. pneumoniae ESBL+; N America): 43.5% | MIC90 (K. pneumoniae ESBL+; N America, N=108): > 8 µg/mL
